Laboratory results reported in ChEMBL document CHEMBL1156829 (Proc Natl Acad Sci U S A, 2008).

Key:
[1] = NOVARTIS: Cytotoxicity against human hepatocellular carcinoma cell line (Huh7); format: toxicity, cell-based, Huh-7; conditions: Huh7 cells (hepatocellular carcinoma cell line)
Plasmodium falciparum [2] = experiment: NOVARTIS: Inhibition of Plasmodium falciparum 3D7 (drug-susceptible) proliferation in erythrocyte-based infection assay; format: functional, organism-based
Plasmodium falciparum [3] = experiment: NOVARTIS: Inhibition of Plasmodium falciparum W2 (drug-resistant) proliferation in erythrocyte-based infection assay; format: functional, organism-based; conditions: read-out: EC50

In the case of `O=C(CCl)Nc1ccc(Cl)cc1`, the CC50 [1] is reported as 5700 nM, the EC50 (Plasmodium falciparum [2]; Plasmodium falciparum, 3D7) is reported as 544 nM and the EC50 (Plasmodium falciparum [3]; Plasmodium falciparum, W2) is reported as 342 nM.
`CCCN1CCC(N2C[C@@H](NC3CCCCCC3)C[C@H]2C(=O)NCCc2ccc3c(c2)OCO3)CC1` gave a CC50 [1] of over 13000 nM, an EC50 (Plasmodium falciparum [2]; Plasmodium falciparum, 3D7) of 1110 nM and an EC50 (Plasmodium falciparum [3]; Plasmodium falciparum, W2) of over 833 nM.
`CCCCCOC(=O)C1=C(C)NC2=C(C(=O)CC(C)(C)C2)C1c1ccncc1` (centres undefined) showed a CC50 [1] of over 100000 nM, an EC50 (Plasmodium falciparum [2]; Plasmodium falciparum, 3D7) of 5190 nM and an EC50 (Plasmodium falciparum [3]; Plasmodium falciparum, W2) of 1860 nM.
For `CC1CCCCN1CCCNc1ncc(C(=O)NCCc2ccccc2)c(NCC2CCCCC2)n1` (centres undefined), the CC50 [1] was over 10000 nM, the EC50 (Plasmodium falciparum [2]; Plasmodium falciparum, 3D7) was 602 nM and the EC50 (Plasmodium falciparum [3]; Plasmodium falciparum, W2) was 1200 nM.
In the case of `CN(CCCNc1ccnc2cc(Cl)ccc12)C(=O)c1ccc(Cl)cc1`, the CC50 [1] is reported as over 8530 nM, the EC50 (Plasmodium falciparum [2]; Plasmodium falciparum, 3D7) is reported as 122 nM and the EC50 (Plasmodium falciparum [3]; Plasmodium falciparum, W2) is reported as 75.6 nM.
Work on `CC(C)CNC(=O)c1cnc(NCCCN2CCCCC2C)nc1NCCc1ccccc1` (centres undefined) yielded a CC50 [1] of over 10000 nM, an EC50 (Plasmodium falciparum [2]; Plasmodium falciparum, 3D7) of 374 nM and an EC50 (Plasmodium falciparum [3]; Plasmodium falciparum, W2) of 1570 nM.
Work on `COc1ccc(NC2=CC(=O)CC(c3ccccc3)C2)c(OC)c1` (centres undefined) yielded a CC50 [1] of over 100000 nM, an EC50 (Plasmodium falciparum [2]; Plasmodium falciparum, 3D7) of over 12500 nM and an EC50 (Plasmodium falciparum [3]; Plasmodium falciparum, W2) of 7740 nM.
Work on `O=C(COC(c1cccs1)c1cccnc1Cl)N1CCN(C(=O)Nc2ccccc2)CC1` (centres undefined) yielded a CC50 [1] of over 100000 nM, an EC50 (Plasmodium falciparum [2]; Plasmodium falciparum, 3D7) of over 12500 nM and an EC50 (Plasmodium falciparum [3]; Plasmodium falciparum, W2) of 1420 nM.
For `C=C[C@H]1CN2CC[C@H]1C[C@H]2[C@H](OC(=O)c1ccc(F)cc1)c1ccnc2ccccc12`, the CC50 [1] was over 10000 nM, the EC50 (Plasmodium falciparum [2]; Plasmodium falciparum, 3D7) was 777 nM and the EC50 (Plasmodium falciparum [3]; Plasmodium falciparum, W2) was under 8.08 nM.
`O=C(CNC(=O)c1ccccc1)Oc1ccc(Cl)cc1` showed a CC50 [1] of over 10000 nM, an EC50 (Plasmodium falciparum [2]; Plasmodium falciparum, 3D7) of 537 nM and an EC50 (Plasmodium falciparum [3]; Plasmodium falciparum, W2) of over 1250 nM.
For `CC(C)CNC(=O)c1cnc(NCCCN2CCCCC2C)nc1Nc1ccccc1` (centres undefined), the CC50 [1] was over 10000 nM, the EC50 (Plasmodium falciparum [2]; Plasmodium falciparum, 3D7) was 1150 nM and the EC50 (Plasmodium falciparum [3]; Plasmodium falciparum, W2) was over 1250 nM.
With `O=C1/C(=C/c2ccccc2)Oc2c1ccc(O)c2CN1CCCCC1` the CC50 [1] was over 10000 nM, the EC50 (Plasmodium falciparum [2]; Plasmodium falciparum, 3D7) was over 1250 nM and the EC50 (Plasmodium falciparum [3]; Plasmodium falciparum, W2) was 1260 nM.
Compound `CCc1ccc(NC(=O)c2ccc(F)c(S(=O)(=O)N3CCN(C)CC3)c2)cc1` has a CC50 [1] of over 10000 nM, an EC50 (Plasmodium falciparum [2]; Plasmodium falciparum, 3D7) of over 1250 nM and an EC50 (Plasmodium falciparum [3]; Plasmodium falciparum, W2) of over 584 nM.
For `c1ccc([B-](c2ccccc2)(c2ccccc2)c2ccccc2)cc1`, the CC50 [1] was over 100000 nM, the EC50 (Plasmodium falciparum [2]; Plasmodium falciparum, 3D7) was 124 nM and the EC50 (Plasmodium falciparum [3]; Plasmodium falciparum, W2) was 44.8 nM.
`CCn1cc(C(=O)NCCC2=CCCCC2)c(=O)c2cc(S(=O)(=O)N(C)C)ccc21` gave a CC50 [1] of over 10000 nM, an EC50 (Plasmodium falciparum [2]; Plasmodium falciparum, 3D7) of over 1250 nM and an EC50 (Plasmodium falciparum [3]; Plasmodium falciparum, W2) of over 449 nM.
`COc1cc(CNCCCN(C)C)ccc1OCc1ccc(F)cc1Cl` gave a CC50 [1] of 4160 nM, an EC50 (Plasmodium falciparum [2]; Plasmodium falciparum, 3D7) of 92 nM and an EC50 (Plasmodium falciparum [3]; Plasmodium falciparum, W2) of 159 nM.
`NC1(C(=O)O)CCc2cc(C(=O)O)ccc21` (centres undefined) gave a CC50 [1] of over 10000 nM, an EC50 (Plasmodium falciparum [2]; Plasmodium falciparum, 3D7) of over 1160 nM and an EC50 (Plasmodium falciparum [3]; Plasmodium falciparum, W2) of 833 nM.
In the case of `Cc1cc(N2CCCC2)nc2ccc(NC(=S)NCCN3CCc4ccccc4C3)cc12`, the CC50 [1] is reported as 21500 nM, the EC50 (Plasmodium falciparum [2]; Plasmodium falciparum, 3D7) is reported as 44 nM and the EC50 (Plasmodium falciparum [3]; Plasmodium falciparum, W2) is reported as 629 nM.
`NC(=O)CN1CC(O)CC1=O` (centres undefined) [OXIRACETAM] showed a CC50 [1] of 57500 nM, an EC50 (Plasmodium falciparum [2]; Plasmodium falciparum, 3D7) of 5960 nM and an EC50 (Plasmodium falciparum [3]; Plasmodium falciparum, W2) of 6220 nM.
`CCOC(=O)c1[nH]c(C)c(Cc2ccc(OCC)cc2)c1C` showed a CC50 [1] of over 100000 nM, an EC50 (Plasmodium falciparum [2]; Plasmodium falciparum, 3D7) of 279 nM and an EC50 (Plasmodium falciparum [3]; Plasmodium falciparum, W2) of 347 nM.
`CN1[C@@H](C(=O)Nc2ccc3c(c2)OCO3)C[C@@H](c2ccc(F)cc2)NS1(=O)=O` showed a CC50 [1] of over 10000 nM, an EC50 (Plasmodium falciparum [2]; Plasmodium falciparum, 3D7) of 1960 nM and an EC50 (Plasmodium falciparum [3]; Plasmodium falciparum, W2) of over 1570 nM.
For `Cc1[nH]c(=O)[nH]c(=O)c1S(=O)(=O)Nc1ccc2oc(-c3ccncc3)nc2c1`, the CC50 [1] was over 100000 nM, the EC50 (Plasmodium falciparum [2]; Plasmodium falciparum, 3D7) was over 10000 nM and the EC50 (Plasmodium falciparum [3]; Plasmodium falciparum, W2) was over 10000 nM.
`Cc1ccn2c(NC(C)(C)CC(C)(C)C)c(-c3ccccc3OC(=O)c3ccc4c(c3)OCO4)nc2c1` showed a CC50 [1] of over 10000 nM, an EC50 (Plasmodium falciparum [2]; Plasmodium falciparum, 3D7) of 831 nM and an EC50 (Plasmodium falciparum [3]; Plasmodium falciparum, W2) of 24.1 nM.
`CCc1ccc(C(=O)C[n+]2cc(-c3ccc(OC)cc3)n3c2CCC3)cc1` showed a CC50 [1] of over 98000 nM, an EC50 (Plasmodium falciparum [2]; Plasmodium falciparum, 3D7) of 677 nM and an EC50 (Plasmodium falciparum [3]; Plasmodium falciparum, W2) of 857 nM.
Compound `Cc1c(C)c2c(c(C)c1O)CC[C@](C)(CN1CCN(c3cc(N4CCCC4)nc(N4CCCC4)n3)CC1)O2` has a CC50 [1] of 42000 nM, an EC50 (Plasmodium falciparum [2]; Plasmodium falciparum, 3D7) of 175 nM and an EC50 (Plasmodium falciparum [3]; Plasmodium falciparum, W2) of 384 nM.
`Cn1nc(C(F)(F)F)c(C(=O)Nc2ccc(Cl)cc2)c1Sc1ccc(Cl)cc1` showed a CC50 [1] of 34800 nM, an EC50 (Plasmodium falciparum [2]; Plasmodium falciparum, 3D7) of 749 nM and an EC50 (Plasmodium falciparum [3]; Plasmodium falciparum, W2) of 369 nM.
`O=C(Nc1ccc(-c2cn3cccnc3n2)cc1)c1ccccc1I` showed a CC50 [1] of over 100000 nM, an EC50 (Plasmodium falciparum [2]; Plasmodium falciparum, 3D7) of over 12500 nM and an EC50 (Plasmodium falciparum [3]; Plasmodium falciparum, W2) of 2620 nM.
For `COc1ccc(-c2ncc([C@@H]3C[C@H]4CN(c5ccccc5)C(=O)[C@]45CCCN35)cn2)cc1`, the CC50 [1] was 29800 nM, the EC50 (Plasmodium falciparum [2]; Plasmodium falciparum, 3D7) was 2260 nM and the EC50 (Plasmodium falciparum [3]; Plasmodium falciparum, W2) was 995 nM.
`CCOc1ccc(S(=O)(=O)Oc2cccc3cccnc23)cc1` gave a CC50 [1] of over 10000 nM, an EC50 (Plasmodium falciparum [2]; Plasmodium falciparum, 3D7) of over 1690 nM and an EC50 (Plasmodium falciparum [3]; Plasmodium falciparum, W2) of over 1190 nM.
Work on `COc1ccc(-n2cnc3cc(NCc4nc5ccccc5n4C)ccc32)cc1` yielded a CC50 [1] of 56800 nM, an EC50 (Plasmodium falciparum [2]; Plasmodium falciparum, 3D7) of 912 nM and an EC50 (Plasmodium falciparum [3]; Plasmodium falciparum, W2) of 906 nM.
`CC1=CC(=O)OC[C@]23CCC(C)=C[C@H]2O[C@@H]2C[C@@H](OC(=O)C=CC=CC(=O)OCC1)[C@@]3(C)[C@]21CO1` gave a CC50 [1] of 206 nM, an EC50 (Plasmodium falciparum [2]) of 3.91 nM and an EC50 (Plasmodium falciparum [3]) of 9.18 nM.
With `CCCCCCN(C(=O)c1ccc(CC)cc1)C(CC)c1nc2ccccc2c(=O)n1-c1cccc(Cl)c1` (centres undefined) the CC50 [1] was over 10000 nM, the EC50 (Plasmodium falciparum [2]; Plasmodium falciparum, 3D7) was 781 nM and the EC50 (Plasmodium falciparum [3]; Plasmodium falciparum, W2) was 782 nM.
Compound `Cc1cc(N2CCN(c3ccccn3)CC2)n2c(nc3ccccc32)c1C#N` has a CC50 [1] of over 100000 nM, an EC50 (Plasmodium falciparum [2]; Plasmodium falciparum, 3D7) of 1400 nM and an EC50 (Plasmodium falciparum [3]; Plasmodium falciparum, W2) of 2760 nM.
